Patent US20230135136A1, “FGFR TYROSINE KINASE INHIBITORS AND ANTI-PDI AGENTS FOR THE TREATMENT OF UROTHELIAL CARCINOMA” (Janssen Pharmaceutica NV, priority 2020, published 2023)
Like-named read-outs stand apart in the source and are kept apart here.

Assays:
[1] = system: CD38+ T cells in the peripheral blood; assay: Phase 1b: flow cytometry immune cell profiling of blood, T cell activation (CD38+ T cells vs C1D1 baseline); assay type: in vivo, human; conditions: E8RJ cohort, at C1D15, erdafitinib treatment alone; FIG. 4C
Description: Phase 1b is the dose escalation part of the study wherein two dosing cohorts (Standard Cohorts and Alternative Cohorts) of erdafitinib were explored, while cetrelimab intravenous (IV) dose was fixed. In the Standard Cohorts (DL1, DL2 or DL2A), erdafitinib and cetrelimab start concurrently from Cycle 1 Day 1 (C1D1). In the Alternative Cohorts (DL1B or DL2B), administration of erdafitinib starts on C1D1 but cetrelimab is initiated 1 cycle (4 weeks) later, on Cycle 2 Day 1 (C2D1) (also referred to as a 28-day run-in of erdafitinib).
For phase 1b, blood for immune cell profiling were collected at four time points (C1D1, C1D15, C2D1 and C3D1). […] Blood samples were subjected to flow cytometry analysis on a real time basis. T cell activation is quantified as fold increase in the proportions of 1) CD38+CD3, CD38+CD4, or CD38+CD8 T cells out of lymphocytes or CD3 T cell populations, and 2) CD38+ cells out of CD4+ or CD8+ T cell populations, compared to the baseline proportion levels at C1D1.
(§1) Longitudinal blood samples were analyzed from DL2A (E8J cohort: Erda 8 mg+cetrelimab 240 mg), DL2B (E8RJ cohort: Erda 8 mg 28 days run-in +cetrelimab 240 mg), and DL2 (EJ cohort: Erda 8 mg with the potential dose adjustments to 9 mg depending on phosphate levels measured on C1D15+cetrelimab 240 mg) of phase 1b, and blood samples from Arm A and Arm B of phase 2.

[2] = system: CD38+ T cells in the peripheral blood; conditions: Arm A, erdafitinib monotherapy, FIG. 7c
Protocol: In Phase 2, two dosing arms are explored: the erdafitinib monotherapy treatment at the starting oral dose of 8 mg (Arm A), or the combination treatment of erdafitinib and cetrelimab (Arm B).
For phase 1b, blood for immune cell profiling were collected at four time points (C1D1, C1D15, C2D1 and C3D1). For phase 2, blood was collected at six time points (C1D1, C1D15, C2D1, C2D15, C3D1 and C3D15). Blood samples were subjected to flow cytometry analysis on a real time basis. T cell activation is quantified as fold increase in the proportions of 1) CD38+CD3, CD38+CD4, or CD38+CD8 T cells out of lymphocytes or CD3 T cell populations, and 2) CD38+ cells out of CD4+ or CD8+ T cell populations, compared to the baseline proportion levels at C1D1.
as §1

SMILES: COc1cc(OC)cc(N(CCNC(C)C)c2ccc3ncc(-c4cnn(C)c4)nc3c2)c1 [erdafitinib, N-(3,5-dimethoxyphenyl)-N′-(1-methylethyl)-N-[3-(1-methyl-1H-pyrazol-4-yl)quinoxalin-6-yl]ethane-1,2-diamine]
- proportion of CD38+CD8 T cells [1]: dramatically increased
- extent of increase of proportion of CD38+CD8 T cells ([2]; compared with Arm B): less than that observed in Arm B
- proportion of CD38+CD8 T cells [2]: increased with time
